Source: US10683553B2, “Method for determining sensitivity to simultaneous inhibitor against PARP and Tankyrase” (THE ASAN FOUNDATION, priority 2015, dated 2020)

Columns and labels:
Type in all cases: cell-based
[1] = system: LoVo human colon cancer cell line; experiment: Trypan blue apoptosis with overexpressed mutant p53 or normal LIG4; conditions: 25 μM and 50 μM, 48 hours
Source text: As in Example 12, in order to analyze the degree of apoptosis of Compound B, which is a novel PARP/Tankyrase simultaneous inhibitor, according to the expression of a mutant type p53 and a normal type LIG4 when the p53 genotype is a normal type and an LIG4 genotype is a mutant type, the present inventors treated a novel PARP/Tankyrase simultaneous inhibitor, Compound B, and the competitive drug PARP inhibitor, olaparib, while overexpressing the p53 mutant type and the LIG4 normal type in the LoVo human colon cancer cell line in which the p53 gene is a normal type and an LIG4 genotype is a mutant type. Then, the number of cells was measured by trypan blue staining assay to confirm the degree of apoptosis. The conditions and methods of the above experiment were the same as the methods of RKO cell culturing and transfection methods of Example 12. Compound B, which is a novel PARP/Tankyrase simultaneous inhibitor, and olaparib, which is a competitive drug PARP inhibitor, were treated with each of 25 μM and 50 μM. After 48 hours of culturing, the number of cells was measured by trypan blue staining assay and the degree of apoptosis was confirmed.

[2] = system: HCT116 human colon cancer cell line; experiment: Trypan blue apoptosis after siRNA knockdown of DNA repair genes; conditions: HCT116 p53 normal, LIG4 siRNA knockdown; 25 μM and 50 μM, 48 hours
Source text: In order to analyze the degree of apoptosis of Compound A, which is a novel PARP/Tankyrase simultaneous inhibitor, depending on the presence or absence of the p53 gene and the presence or absence of the DNA repair gene, the present inventors reduced gene expression by an ATR, XLF, XRCC4 and LIG4 siRNA knockdown method known as a DNA repair gene in the human colon cancer cell line HCT116 in which the p53 normal gene is present, and then treated with Compound A, which is a novel PARP/Tankyrase simultaneous inhibitor. Then, the number of cells was measured by trypan blue staining assay to confirm the degree of apoptosis. As the experimental conditions and methods, the HCT116 p53 null human colon cancer cell line in which the p53 gene is normal and the HCT116 and p53 gene are deficient is cultured in RPMI1640 (10% FBS, 1% penicillin/streptomycin), and 1×10^5 per well was cultured at 37° C. for 24 hours in a 60 mm plate. ATR, XLF, XRCC4 and LIG4 (SEQ ID NO: 4; ATR siRNA 5′-GAGUUCUCAGAAGUCAACC-3′, SEQ ID NO: 5; XLF siRNA 5′-[…]-3′, SEQ ID NO: 6; XRCC4 siRNA 5′-[…]-3′, SEQ ID NO: 7; LIG4 siRNA 5′-GGGAGUGUCUCAUGUAAUA-3′) were infused into cells by means of Lipofectamin 2000 (Invitrogen), and knocked down at 37° C. for 48 hours. […] After 48 hours of culturing, the number of cells was measured by trypan blue staining and the degree of apoptosis was confirmed.

[3] = system: HCT8 human colon cancer cell line; experiment: Western blot of r-H2AX and truncated caspase 3 with overexpressed mutant LIG4; conditions: HCT8 overexpressing LIG4 mutant G833A or T1704C
Protocol: The present inventors conducted an experiment in the same manner as Example 9 to analyze the degree of apoptosis and DNA damage of Compound A, which is a novel PARP/Tankyrase simultaneous inhibitor, when the p53 genotype is a mutant type and an LIG4 genotype is a mutant type. The number of cells was measured by trypan blue staining method and the degree of apoptosis was confirmed. The cells were obtained using a centrifuge. Each cell thus obtained was dissolved using an RIPA buffer, and the proteins were extracted using a high-speed centrifuge. 30 μg protein per cell was electrophoresed by western blot method to separate proteins and transferred to PDVF membrane. The r-H2AX, truncated caspase 3, and b-actin antibody were diluted with each 1:2000 ratio in 5% skim milk. Then, the cells were reacted at 4° C. for 12 hours and then washed three times for 15 minutes with TBS-T buffer. The secondary antibody was diluted with each 1:2000 ratio in 5% skim milk and reacted at room temperature for 2 hours. It was washed with TBS-T buffer three times for 15 minutes to induce luminescence of PDVF membrane using ECL buffer solution to develop protein expression on each anti-body using an X-ray film.

[4] = system: HCT8 human colon cancer cell line; experiment: Trypan blue apoptosis with overexpressed mutant LIG4 (G833A or T1704C); conditions: HCT8 overexpressing LIG4 mutant G833A or T1704C vs control group (empty); 25 μM and 50 μM, 48 hours
Source text: In order to analyze the degree of apoptosis of Compound A, which is a novel PARP/Tankyrase simultaneous inhibitor, when the p53 genotype is a normal type and an LIG4 genotype is a mutant type, the present inventors treated a novel PARP/Tankyrase simultaneous inhibitor, Compound A, and the competitive drug PARP inhibitor, olaparib, while overexpressing an LIG4 mutant type in the HCT8 human colon cancer cell line in which the p53 gene is a normal type and an LIG4 genotype is a normal type. Then, the number of cells was measured by trypan blue staining assay to confirm the degree of apoptosis. […] After 48 hours of culturing, the number of cells was measured by trypan blue staining and the degree of apoptosis was confirmed.
The present inventors conducted an experiment in the same manner as Example 9 to analyze the degree of apoptosis and DNA damage of Compound A, which is a novel PARP/Tankyrase simultaneous inhibitor, when the p53 genotype is a mutant type and an LIG4 genotype is a mutant type. The number of cells was measured by trypan blue staining method and the degree of apoptosis was confirmed. […] It was washed with TBS-T buffer three times for 15 minutes to induce luminescence of PDVF membrane using ECL buffer solution to develop protein expression on each anti-body using an X-ray film.

| Structure (SMILES) | degree of apoptosis (trypan blue cell count) ([1]; LoVo overexpressing LIG4 normal type gene vs control group (empty)) | degree of apoptosis (trypan blue cell count) ([1]; LoVo overexpressing p53 mutant type gene vs control group (empty)) | degree of apoptosis (trypan blue cell count) [2] | expression amount of truncated caspase 3 (western blot) [3] | expression of r-H2AX (western blot) [3] | degree of apoptosis (trypan blue cell count) [4] |
| --- | --- | --- | --- | --- | --- | --- |
| N#Cc1ccc(N2CCN(Cc3ccc4c5c(c(=O)[nH]c4c3)CCCN5)CC2)nc1 [Compound B, 6-{4-[(5-oxo-1,2,3,4,5,6-hexahydrobenzo[h][1,6]naphthyridin-8-yl)methyl]piperazin-1-yl}nicotinonitrile] | apoptosis was reduced | apoptosis was reduced |  |  |  |  |
| CCOc1cc(CN(C)C)cc2[nH]c(=O)c3c(c12)NCCC3 [Compound A, 8-[(dimethylamino)methyl]-10-ethoxy-1,2,3,4-tetrahydrobenzo[h][1,6]naphthyridin-5(6H)-one] |  |  | apoptosis is significantly increased | also increased | also increased | apoptosis was increased |
